Where two headings read alike, the source gives them in different places.
Experiments:
Assay in all cases: KiNativ, MOLM13 live cells
Assay type in all cases: cell-based
MAP3K2 = MAP3K2 (Homo sapiens, UniProt Q9Y2U5); details: MOLM-13; 100 nM, 2 hours; Lys1; read-out: Inhibition vs DMSO
Method: (§1) Samples were analyzed by KiNativ in situ kinase profiling by ActivX Biosciences.

MAP2K5 = MAP2K5 (Homo sapiens, UniProt Q13163); details: MOLM-13; 100 nM, 2 hours; Lys2; read-out: Inhibition vs DMSO
Method: as §1

MAP2K4 = target: T1, MAP2K4 (Homo sapiens, UniProt P45985); details: MOLM-13, 2 h, 100 nM
T1 sequence (P45985 1-399): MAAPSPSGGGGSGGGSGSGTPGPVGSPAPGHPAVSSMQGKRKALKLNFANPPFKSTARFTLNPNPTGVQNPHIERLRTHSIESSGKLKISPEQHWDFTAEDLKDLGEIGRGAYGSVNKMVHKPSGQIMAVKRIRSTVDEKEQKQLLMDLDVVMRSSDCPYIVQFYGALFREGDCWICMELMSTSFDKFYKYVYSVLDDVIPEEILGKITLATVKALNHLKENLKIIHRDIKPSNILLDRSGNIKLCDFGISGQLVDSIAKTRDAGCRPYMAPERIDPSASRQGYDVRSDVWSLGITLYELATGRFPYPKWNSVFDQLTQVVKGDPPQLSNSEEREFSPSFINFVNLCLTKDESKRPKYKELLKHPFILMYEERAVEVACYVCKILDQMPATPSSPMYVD
Method: as §1

PIK3CD = PIK3CD (Homo sapiens, UniProt O00329); details: MOLM-13; 100 nM, 2 hours; ATP; read-out: Inhibition vs DMSO
Method: as §1

TBK1 = TBK1 (Homo sapiens, UniProt Q9UHD2); details: MOLM-13; 100 nM, 2 hours; Lys1; read-out: Inhibition vs DMSO
Method: as §1

CDK6 = CDK6 (Homo sapiens, UniProt Q00534); details: MOLM-13; 100 nM, 2 hours; Lys2; read-out: Inhibition vs DMSO
Method: as §1

FAM20B = FAM20B (Homo sapiens, UniProt O75063); details: MOLM-13; 100 nM, 2 hours; ATP; read-out: Inhibition vs DMSO
Method: as §1

NEK3 = NEK3 (Homo sapiens, UniProt P51956); details: MOLM-13; 100 nM, 2 hours; Activation Loop; read-out: Inhibition vs DMSO
Method: as §1

MSK1 domain1 = target: T2, MSK1 domain1 (Homo sapiens, UniProt O75582); details: MOLM-13; 100 nM, 2 hours; Lys2; read-out: Inhibition vs DMSO
T2 construct: MSK1 domain1
Method: as §1

p70S6Kb = p70S6Kb (Homo sapiens, UniProt Q9UBS0); details: MOLM-13, 2 h, 100 nM
Method: as §1

IRE1 = IRE1 (Homo sapiens, UniProt O75460); details: MOLM-13; 100 nM, 2 hours; Lys2; read-out: Inhibition vs DMSO
Method: as §1

RAF1 = RAF1 (Homo sapiens, UniProt P04049); details: MOLM-13; 100 nM, 2 hours; Lys2; read-out: Inhibition vs DMSO
Method: as §1

SGK3 = SGK3 (Homo sapiens, UniProt Q96BR1); details: MOLM-13; 100 nM, 2 hours; Lys1; read-out: Inhibition vs DMSO
Method: as §1

BTK = BTK (Homo sapiens, UniProt Q06187); details: 100 nM, 2 hours; Activation Loop
Method: as §1

CDK2 = CDK2 (Homo sapiens, UniProt P24941); details: 100 nM, 2 hours
Method: as §1

TAO2 = TAO2 (Homo sapiens, UniProt Q9UL54); details: MOLM-13; 100 nM, 2 hours; Lys2; read-out: Inhibition vs DMSO
Method: as §1

CHK2 = CHK2 (Homo sapiens, UniProt O96017); details: MOLM-13, 2 h, 100 nM
Method: as §1

HPK1 = HPK1 (Homo sapiens, UniProt Q92918); details: MOLM-13, 2 h, 100 nM
Method: as §1

PIP5K3 = PIP5K3 (Homo sapiens, UniProt Q9Y2I7); details: 100 nM, 2 hours; ATP
Method: as §1

NEK2 = NEK2 (Homo sapiens, UniProt P51955); details: MOLM-13; 100 nM, 2 hours; Lys2; read-out: Inhibition vs DMSO
Method: as §1

CDK4 = CDK4 (Homo sapiens, UniProt P11802); details: MOLM-13; 100 nM, 2 hours; Lys2; read-out: Inhibition vs DMSO
Method: as §1

DGKH = DGKH (Homo sapiens, UniProt Q86XP1); details: MOLM-13; 100 nM, 2 hours; ATP; read-out: Inhibition vs DMSO
Method: as §1

SMG1 = SMG1 (Homo sapiens, UniProt Q96Q15); details: 100 nM, 2 hours, ATP
Method: as §1

[1] = Lys1, read-out: Inhibition vs DMSO
[2] = Lys2, read-out: Inhibition vs DMSO

Sequence of SMG1 (Q96Q15 whole entry): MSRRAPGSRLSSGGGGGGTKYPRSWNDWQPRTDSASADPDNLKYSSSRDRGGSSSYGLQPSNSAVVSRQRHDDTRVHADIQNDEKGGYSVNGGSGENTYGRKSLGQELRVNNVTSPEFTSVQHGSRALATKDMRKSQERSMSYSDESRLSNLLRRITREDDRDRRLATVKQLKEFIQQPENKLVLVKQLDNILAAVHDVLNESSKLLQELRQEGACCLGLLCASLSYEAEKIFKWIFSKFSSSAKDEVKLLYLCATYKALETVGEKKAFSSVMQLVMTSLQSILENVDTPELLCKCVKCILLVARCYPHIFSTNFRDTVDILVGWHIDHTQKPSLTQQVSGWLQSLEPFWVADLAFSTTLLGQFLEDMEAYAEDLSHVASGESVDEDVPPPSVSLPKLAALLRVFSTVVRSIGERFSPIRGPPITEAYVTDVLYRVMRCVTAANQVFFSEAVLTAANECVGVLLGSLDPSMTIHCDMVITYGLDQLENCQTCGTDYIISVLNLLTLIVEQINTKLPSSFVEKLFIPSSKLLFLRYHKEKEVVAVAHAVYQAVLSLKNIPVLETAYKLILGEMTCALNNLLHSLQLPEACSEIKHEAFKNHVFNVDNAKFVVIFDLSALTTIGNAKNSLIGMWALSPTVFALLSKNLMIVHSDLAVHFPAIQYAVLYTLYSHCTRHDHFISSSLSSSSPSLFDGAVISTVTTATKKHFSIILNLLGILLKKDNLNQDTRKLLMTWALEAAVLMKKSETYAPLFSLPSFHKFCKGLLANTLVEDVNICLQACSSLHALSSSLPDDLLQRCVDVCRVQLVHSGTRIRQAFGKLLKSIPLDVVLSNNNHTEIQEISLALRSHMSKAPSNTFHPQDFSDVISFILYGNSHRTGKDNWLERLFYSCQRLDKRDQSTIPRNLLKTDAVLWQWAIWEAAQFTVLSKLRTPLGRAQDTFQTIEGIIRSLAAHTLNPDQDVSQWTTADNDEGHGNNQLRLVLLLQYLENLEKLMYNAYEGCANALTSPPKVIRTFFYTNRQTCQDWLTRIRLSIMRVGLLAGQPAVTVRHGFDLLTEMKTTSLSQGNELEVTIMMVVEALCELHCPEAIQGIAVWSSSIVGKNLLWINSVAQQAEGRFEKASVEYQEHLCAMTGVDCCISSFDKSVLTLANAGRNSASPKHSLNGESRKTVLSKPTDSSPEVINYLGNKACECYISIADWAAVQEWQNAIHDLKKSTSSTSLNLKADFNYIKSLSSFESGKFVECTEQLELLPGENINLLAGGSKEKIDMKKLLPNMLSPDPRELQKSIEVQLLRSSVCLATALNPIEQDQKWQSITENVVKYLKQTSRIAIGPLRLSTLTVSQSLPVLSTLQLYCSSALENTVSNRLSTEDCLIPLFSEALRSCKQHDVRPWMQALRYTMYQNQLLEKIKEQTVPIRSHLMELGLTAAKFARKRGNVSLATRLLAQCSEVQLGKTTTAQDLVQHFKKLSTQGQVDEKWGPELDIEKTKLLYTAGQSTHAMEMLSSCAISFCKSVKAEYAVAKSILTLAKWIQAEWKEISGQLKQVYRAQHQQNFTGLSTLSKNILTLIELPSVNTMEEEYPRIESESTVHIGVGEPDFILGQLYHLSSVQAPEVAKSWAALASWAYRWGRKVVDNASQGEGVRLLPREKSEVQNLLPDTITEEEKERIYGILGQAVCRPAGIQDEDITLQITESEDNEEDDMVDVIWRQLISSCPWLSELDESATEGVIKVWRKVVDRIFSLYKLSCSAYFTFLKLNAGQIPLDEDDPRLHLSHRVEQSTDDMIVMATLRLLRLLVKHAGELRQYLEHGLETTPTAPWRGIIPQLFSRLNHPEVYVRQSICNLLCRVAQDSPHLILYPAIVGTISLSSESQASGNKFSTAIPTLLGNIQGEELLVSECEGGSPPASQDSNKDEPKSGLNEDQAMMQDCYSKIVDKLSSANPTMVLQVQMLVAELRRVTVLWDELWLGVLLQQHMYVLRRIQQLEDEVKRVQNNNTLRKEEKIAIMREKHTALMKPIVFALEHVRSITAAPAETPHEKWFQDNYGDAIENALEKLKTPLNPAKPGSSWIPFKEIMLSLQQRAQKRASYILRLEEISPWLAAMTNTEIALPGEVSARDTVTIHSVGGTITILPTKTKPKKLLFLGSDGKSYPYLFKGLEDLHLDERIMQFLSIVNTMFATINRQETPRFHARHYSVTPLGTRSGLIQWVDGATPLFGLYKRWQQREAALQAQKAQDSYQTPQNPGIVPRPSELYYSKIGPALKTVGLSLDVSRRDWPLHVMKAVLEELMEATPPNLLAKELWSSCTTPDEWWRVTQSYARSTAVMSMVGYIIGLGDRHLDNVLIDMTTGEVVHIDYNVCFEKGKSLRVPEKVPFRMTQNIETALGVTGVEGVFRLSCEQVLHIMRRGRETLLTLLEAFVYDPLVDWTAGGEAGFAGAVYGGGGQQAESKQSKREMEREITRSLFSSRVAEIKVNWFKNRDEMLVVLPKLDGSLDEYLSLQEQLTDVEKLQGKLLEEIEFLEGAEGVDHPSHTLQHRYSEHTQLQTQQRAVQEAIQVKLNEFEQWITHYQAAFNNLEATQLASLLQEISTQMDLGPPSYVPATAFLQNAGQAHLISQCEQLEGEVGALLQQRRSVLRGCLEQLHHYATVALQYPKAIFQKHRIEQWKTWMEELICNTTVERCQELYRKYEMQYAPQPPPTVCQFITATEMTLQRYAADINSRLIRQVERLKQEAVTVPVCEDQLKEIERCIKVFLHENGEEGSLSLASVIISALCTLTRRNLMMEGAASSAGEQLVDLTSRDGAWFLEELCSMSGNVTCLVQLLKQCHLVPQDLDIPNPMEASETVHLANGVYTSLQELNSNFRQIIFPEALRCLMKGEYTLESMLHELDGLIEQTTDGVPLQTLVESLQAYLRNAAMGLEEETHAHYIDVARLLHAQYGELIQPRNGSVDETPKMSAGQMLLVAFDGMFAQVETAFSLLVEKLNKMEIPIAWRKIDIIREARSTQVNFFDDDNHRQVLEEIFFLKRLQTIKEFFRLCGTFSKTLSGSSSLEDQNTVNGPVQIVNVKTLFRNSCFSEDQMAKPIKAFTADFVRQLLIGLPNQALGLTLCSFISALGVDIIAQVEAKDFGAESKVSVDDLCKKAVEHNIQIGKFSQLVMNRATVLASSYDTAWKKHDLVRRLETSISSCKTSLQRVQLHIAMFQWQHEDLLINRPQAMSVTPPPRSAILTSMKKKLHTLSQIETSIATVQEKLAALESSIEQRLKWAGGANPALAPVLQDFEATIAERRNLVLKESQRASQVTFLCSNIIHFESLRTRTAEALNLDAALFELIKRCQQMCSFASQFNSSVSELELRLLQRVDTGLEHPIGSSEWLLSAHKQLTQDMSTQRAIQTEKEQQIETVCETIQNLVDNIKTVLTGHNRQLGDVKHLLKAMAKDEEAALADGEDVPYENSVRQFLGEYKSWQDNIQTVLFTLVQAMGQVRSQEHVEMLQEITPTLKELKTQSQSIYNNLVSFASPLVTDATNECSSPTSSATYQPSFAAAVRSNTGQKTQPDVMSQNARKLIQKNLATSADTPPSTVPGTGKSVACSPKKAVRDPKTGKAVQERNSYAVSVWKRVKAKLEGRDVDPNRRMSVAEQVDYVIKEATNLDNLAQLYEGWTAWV
Sequence of CHK2 (O96017 whole entry): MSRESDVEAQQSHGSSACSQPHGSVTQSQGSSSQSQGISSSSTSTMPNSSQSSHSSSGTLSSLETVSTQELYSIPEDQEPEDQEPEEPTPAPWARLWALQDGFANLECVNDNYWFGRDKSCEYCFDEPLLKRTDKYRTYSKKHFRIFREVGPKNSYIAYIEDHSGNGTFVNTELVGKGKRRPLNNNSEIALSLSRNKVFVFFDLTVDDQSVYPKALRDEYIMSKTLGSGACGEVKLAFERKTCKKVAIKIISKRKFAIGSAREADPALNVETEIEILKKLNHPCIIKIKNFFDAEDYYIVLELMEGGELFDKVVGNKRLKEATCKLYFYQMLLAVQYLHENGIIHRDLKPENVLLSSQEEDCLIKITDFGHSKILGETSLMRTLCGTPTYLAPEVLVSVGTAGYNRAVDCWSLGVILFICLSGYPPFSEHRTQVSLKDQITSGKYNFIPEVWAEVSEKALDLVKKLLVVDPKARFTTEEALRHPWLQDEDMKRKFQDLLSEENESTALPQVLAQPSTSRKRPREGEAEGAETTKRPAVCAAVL
Sequence of HPK1 (Q92918 whole entry): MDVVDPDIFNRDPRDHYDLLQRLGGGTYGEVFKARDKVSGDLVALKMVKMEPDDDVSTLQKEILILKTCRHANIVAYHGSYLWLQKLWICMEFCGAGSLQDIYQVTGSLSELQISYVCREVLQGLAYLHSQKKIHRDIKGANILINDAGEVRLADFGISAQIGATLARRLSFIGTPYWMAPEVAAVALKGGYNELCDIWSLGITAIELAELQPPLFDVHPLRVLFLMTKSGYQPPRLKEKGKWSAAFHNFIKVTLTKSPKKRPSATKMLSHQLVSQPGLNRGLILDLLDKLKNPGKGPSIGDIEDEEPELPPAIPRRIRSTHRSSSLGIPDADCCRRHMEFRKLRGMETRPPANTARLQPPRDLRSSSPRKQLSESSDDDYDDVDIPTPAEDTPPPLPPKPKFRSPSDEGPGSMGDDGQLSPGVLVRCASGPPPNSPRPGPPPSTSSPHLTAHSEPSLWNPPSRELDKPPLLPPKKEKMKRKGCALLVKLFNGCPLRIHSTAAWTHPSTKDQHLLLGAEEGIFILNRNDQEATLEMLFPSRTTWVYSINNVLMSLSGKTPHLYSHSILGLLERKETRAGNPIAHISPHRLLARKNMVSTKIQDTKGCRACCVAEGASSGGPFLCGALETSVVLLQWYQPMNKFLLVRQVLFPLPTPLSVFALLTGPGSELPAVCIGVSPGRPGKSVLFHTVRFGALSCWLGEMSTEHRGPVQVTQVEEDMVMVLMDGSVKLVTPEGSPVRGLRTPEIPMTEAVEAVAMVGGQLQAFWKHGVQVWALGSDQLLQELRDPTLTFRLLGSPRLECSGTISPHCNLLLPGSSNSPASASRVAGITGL

SMILES: CN1CCN(Cc2ccc(Nc3ncc(Cl)c(Nc4ccccc4S(=O)(=O)N(C)C)n3)cc2)CC1 [TP-0903]
- inhibition at 0.1 µM (MAP3K2): -7.5%
- inhibition at 0.1 µM (MAP2K5): -1.6%
- inhibition at 0.1 µM (MAP2K4; Activation Loop, read-out: Inhibition vs DMSO): 4.3%
- inhibition at 0.1 µM (MAP2K4; [1]): -38.6%
- inhibition at 0.1 µM (MAP2K4; [2]): 4.1%
- inhibition at 0.1 µM (PIK3CD): -4.6%
- inhibition at 0.1 µM (TBK1): 82.3%
- inhibition at 0.1 µM (CDK6): 80.8%
- inhibition at 0.1 µM (FAM20B): -5%
- inhibition at 0.1 µM (NEK3): 14.6%
- inhibition at 0.1 µM (MSK1 domain1): -10.3%
- inhibition at 0.1 µM (p70S6Kb; [1]): 10.1%
- inhibition at 0.1 µM (p70S6Kb; [2]): -12.6%
- inhibition at 0.1 µM (IRE1): -29.3%
- inhibition at 0.1 µM (RAF1): 0.349%
- inhibition at 0.1 µM (SGK3): -9.6%
- Inhibition vs DMSO (BTK): 57.0%
- Inhibition vs DMSO (CDK2; Lys1): 2.7%
- Inhibition vs DMSO (CDK2; Lys2): 16.8%
- inhibition at 0.1 µM (TAO2): 10.8%
- inhibition at 0.1 µM (CHK2; [1]): 11.3%
- inhibition at 0.1 µM (CHK2; [2]): -23.4%
- inhibition at 0.1 µM (HPK1; [1]): 58.7%
- inhibition at 0.1 µM (HPK1; [2]): 55.7%
- Inhibition vs DMSO (PIP5K3): 50.9%
- inhibition at 0.1 µM (NEK2): -4.6%
- inhibition at 0.1 µM (CDK4): 9.8%
- inhibition at 0.1 µM (DGKH): -1.3%
- Inhibition vs DMSO (SMG1; DTVTIHSVGGTITILPTKTKPK): -27.8%
- Inhibition vs DMSO (SMG1; SYPYLFKGLEDLHLDER): -27.3%

Reference: article PMC7714403 (JCI Insight, 2020)
